Results taken from patent US20150238539A1, “COMPOSITION FOR BRAIN-NEURON PROTECTION AND BRAIN-DISEASE PREVENTION, ALLEVIATION OR TREATMENT COMPRISING MUSKRAT MUSK” (priority 2012, published 2015).

What was measured:
male ICR mouse [1] = experiment: Morris water-maze experiment in mice with ethanol-induced memory damage; format: in vivo; details: oral once a day for 4 days, then ethanol; for Mean escape latency: mean of 3 trials a day, cut-off 120 seconds; for Time spent in quadrant: probe test on last day, escape platform removed
Experimental: (§1) As for the experimental animals, 18 to 20 g of 45 male ICR mouse purchased from DAEHAN Animal Experiment Co., Ltd. were used. Specifically, the animals were classified to include five mice per group, then placed in a cage, sufficiently fed with water and foodstuff, and bred in an animal room wherein the temperature (24 ±1° C.), relative humidity (55±5%) and the light-dark (06:00-18:00, light) were controlled during the experiment period. The animals were classified into nine groups of the non-treated group, the ethanol group, the tacrine group and the groups of PREPARATIONS 1 to 6.
The morris water-maze experiment was carried out to measure the degree affecting the recovery of the spatial perception ability and short-term or long-term memory power in experimental animals.
Prior to the morris water-maze experiment, tacrine and the substances of PREPARATIONS 1 to 6 were orally administered to seven groups except for the non-treated group and the ethanol group once a day. On the 4th day, the last day of administration, tacrine and the substances from Preparations 1 to 6 were administered. After 30 minutes, ethanol which undergoes damage to the memory power of the mouse was orally administered to eight groups except for the non-treated group.
In the morris water-maze apparatus, water (temperature: 22±2° C.) was filled by 32 cm within a tank filled with opaque water (diameter 120 cm, height 45 cm) and an escape platform (diameter 10 cm, height 30 cm) was installed in one section of the quadrant located 2 cm below the surface of the water. The powdered skim milk was added to be invisible. The experiment was conducted for five days. The possibility of going to the escape area by chance by changing the positions of acquisition three times a day at three different positions which were minimized. If animals go to the escape area and stay for more than 10 seconds, the time taken until an escape area was found was set to the escape latency. The mean value of the experiments 3 times a day was set to the mean escape latency. In the morris water-maze test, since the test animals remembered and find out the targeting position, the position of the marker was remained constant during the experiment period so that there was no change in the surrounding environment. In the case where the escape platform was not found within 120 seconds, the experiment animal was induced to the escape platform and stayed for 10 seconds, thereby having the position remembered.
On the last day of the experiment, the escape platform was removed. The probe test for measuring the time spent in platform quadrant was carried out.

male ICR mouse [2] = experiment: Passive avoidance experiment in mice with ethanol-induced memory damage; format: in vivo; details: oral once a day for 4 days; for Time of arrival in the learning test: acquisition trial, ethanol orally 30 minutes after last administration; for Time of arrival in the retention trial: step-through latency 24 hours after learning test, measured up to 300 seconds, then ethanol
Experimental: as §1
The passive avoidance experiment was performed in order to confirm the effects of the compositions of PREPARATIONS 1 to 6 on each memory and learning. This experiment uses the characteristics that animals intend to enter into the dark instinctively. If the animals intend to enter into the dark, an electrical stimulation is given to the animals to prevent from entering the dark. Thereafter, the short-term memory power against the electrical stimulation was measured.
Four days before the passive avoidance experiment, tacrine and substances PREPARATIONS 1 to 6 were orally administered to seven other groups except for the non-treated group and the ethanol group once a day. On day 4, the last day of administration, tacrine and compositions of PREPARATIONS 1 to 6 were orally administered. After 30 minutes, ethanol which undergoes damage to the memory power of mouse was orally administered to eight groups except for the non-treated group.
The passive avoidance experiment was conducted in the apparatus wherein each room having the same structure and 60 dB or less of noise and including a room with light and a room without light (width 20 cm, length 20 cm, height 20 cm) is connected to the guillotin door (Jungdo Bio & Plant Co. Ltd, Seoul, Korea). The mouse was placed in a bright room with shining light and observed for 10 seconds. Subsequently, the door was opened and the mouse was allowed to enter into the dark room. At this time, the time taken to go into a dark room was measured (Learning Test: acquisition trial). If the mouse enters into the dark room, the door is automatically closed. The electrical stimulation of 0.6 mA was given to the mouse through the stainless grid on the bottom for five seconds.
In order to confirm the effect of recovering the cognitive function of the composition the present invention, influencing on the long-term memory after the learning test, the mouse was placed on the bright side of the room after 24 hours. The time taken to go into the dark room (step-through latency time: time of arrival) was measured up to 300 seconds (retention trial).

SMILES | Mean escape latency (male ICR mouse [1]) [s] | Time spent in quadrant (male ICR mouse [1]) [s] | Time of arrival in the learning test (male ICR mouse [2]) [s] | Time of arrival in the retention trial (male ICR mouse [2]) [s]
CCO [Ethanol, ethanol] | 121 | 18 | 12 | 21
Nc1c2c(nc3ccccc13)CCCC2 [Tacrine, tacrine] | 56 | 28 | 20 | 85
